18 molecules from patent US11111219B2, “Polysubstituted pyrimidines inhibiting the formation of prostaglandin E2, a method of production thereof and use thereof” (USTAV ORGANICKE CHEMIE A BIOCHEMIE AV CR, V.V.I., priority 2017, dated 2021) can be followed below.

Common to all, as to type: cell-based
One data set deals with biosynthesis of PGE2. Briefly: Production of PGE2 in LPS-stimulated mouse peritoneal cells. Particulars: for activity at 50 µM: Mus musculus, 5 h, compound 50 μmol·l^−1, with LPS 10 ng/ml, 5 hours, LPS alone = 100%, low values = strong inhibition, read-out: PGE2 remaining activity in % of LPS response (mean ± SEM); for IC50: concentration-effect experiments, 0.0004 to 25 μmol·l^−1, mouse peritoneal cells, LPS, read-out: PGE2 IC50, and 95% limits of confidence (in parentheses). As to the method:
Production of PGE2 was assayed in vitro in cultures of mouse peritoneal cells. The cells (2×10^6/mL) were stimulated with bacterial lipopolysaccharide (LPS, 10 ng/ml). Tested pyrimidine derivatives were applied at the concentration of 50 μmol.l^−1, concomitantly with LPS. Amount of PGE2 in cell supernatants was determined 5 hours after stimulation using the commercially available kit (R&D Systems). The effects of pyrimidines on PGE2 production were evaluated in percent of control values, i.e. those found after the action of LPS alone (100%). The data in Table 2 show the remaining activity; the low values thus indicate strong inhibition of PGE2 formation.
The concentrations required to inhibit PGE2 biosynthesis by 50% (so-called IC50) were determined by the analysis of concentration-effect experiments. For this purpose, the compounds were applied within the range of 0.0004 μmol.l^−1 až 25 μmol.l^−1.

Another data set concerns mouse peritoneal cells. Briefly: Cell viability, lactate dehydrogenase (LDH) assay. Particulars: compound 50 μmol·l^−1, 5 hours. How it is done: Cell viability was determined using the lactate dehydrogenase assay (LDH kit, Sigma-Aldrich). The mouse peritoneal cells were cultured for 5 hours in the presence of tested compounds applied at the concentration of 50 μmol.l^−1. The effects of pyrimidines were compared with the viability of cells cultured in the absence of the compounds. The later was taken as a control 100% viability.

The subject of data set [1] is production of nitric oxide (NO). Briefly: Production of nitric oxide (NO) in LPS/IFN-γ-stimulated murine peritoneal cells (Griess reagent). As to conditions: Mus musculus; compound 50 μmol·l^−1, LPS 0.1 ng/ml + IFN-γ 5 ng/ml, nitrites at 24 h; LPS/IFN-γ alone = 100%; read-out: Production of NO in % of controls. As to the method:
Similar to the PGE2 assay, the production of nitric oxide (NO) was followed under conditions in vitro using murine peritoneal cells (FIG. 1). The cells (2×10^6/ml) were cultured in presence of lipopolysaccharide (LPS, 0.1 ng/ml) and recombinant mouse interferon-γ (IFN-γ, 5 ng/ml). Effects of tested pyrimidine derivatives were screened at the concentration of 50 μmol.l^−1. The compounds were added concomitantly with LPS/IFN-γ. The concentration of nitrites in cell supernatants (a measure of NO production) was evaluated spectrophotometrically, 24 h after the priming stimuli. Griess reagent was used for this purpose. The effects of pyrimidines on NO production were evaluated in percent of control values, i.e those found after the action of LPS/IFN-γ alone (100%).
On the technique in general: Nitrite, measured by Griess reagent, commonly stands in for NO production.

Several values for one entry are separate records, joined by “and”; a condition that tells them apart may be missing. Equal entries are not always repeated.

Turning to `CCCCc1c(-c2ccccc2)nc(N)nc1-c1ccc(OCC)cc1` [Compound 1a, 5-butyl-4-(4-ethoxyphenyl)-6-phenylpyrimidin-2-amine], the activity at 50 µM in the data set on biosynthesis of PGE2 was determined as 26.3 ± 0.1%. For the same molecule, the “Cell viability in % of untreated controls (LDH assay)” value (shortened to “Cell viability in %”) in the data set on mouse peritoneal cells is given as 104.6 ± 1.3 (n = 8) %.

`CCCCc1c(-c2ccccc2)nc(N)nc1-c1ccc(OC(C)C)cc1` [Compound 1b, 5-butyl-4-(4-isopropoxyphenyl)-6-phenylpyrimidin-2-amine]: the activity at 50 µM with biosynthesis of PGE2 worked out at 12.3 ± 0.5%. Further, the “Cell viability in %” value in the data set with mouse peritoneal cells was 71.2 ± 1.9 (n = 8) %.

As for `Nc1nc(-c2ccccc2)cc(-c2ccc(OCc3ccccc3)cc2)n1` [Compound 1d, 4-(4-(benzyloxy)phenyl)-6-phenylpyrimidin-2-amine], in the data set with biosynthesis of PGE2, the activity at 50 µM was 0.7 ± 0.8%. Besides, the “Cell viability in %” value with mouse peritoneal cells was 101.2 ± 0.7 (n = 4) %.

As usually defined, the IC50 is the concentration that inhibits the measured activity by half. As for `CCCCc1c(-c2ccccc2)nc(N)nc1-c1ccc(OCc2ccccc2)cc1` [Compound 1e, 4-(4-(benzyloxy)phenyl)-5-butyl-6-phenylpyrimidin-2-amine], the IC50 in the data set on biosynthesis of PGE2 was found to be 94 nM.

As for `CCCCc1c(-c2ccccc2)nc(N)nc1-c1ccc(OCc2cccc3ccccc23)cc1` [Compound 1f, 5-butyl-4-(4-(naphthalen-1-ylmethoxy)phenyl)-6-phenylpyrimidin-2-amine], the activity at 50 µM with biosynthesis of PGE2 came out at 26.3 ± 5.3%. In addition, the “Cell viability in %” value in the data set with mouse peritoneal cells is on record as 104.8 ± 0.4 (n = 8) %.

With `COc1ccc(COc2ccc(-c3cc(-c4ccccc4)nc(N)n3)cc2)cc1` [Compound 1g], the activity at 50 µM in the data set on biosynthesis of PGE2 was found to be 8.4 ± 3%. Also, in the data set with mouse peritoneal cells, the “Cell viability in %” value was 99.6 ± 3.0 (n = 4) %.

For the molecule `CCCCc1c(-c2ccccc2)nc(N)nc1-c1ccc(OCc2ccc(OC)cc2)cc1` [Compound 1h, 5-butyl-4-(4-((4-methoxybenzyl)oxy)phenyl)-6-phenylpyrimidin-2-amine], in the data set on biosynthesis of PGE2, the activity at 50 µM turned out to be 2 ± 1.5% and the IC50 stood at 5400 nM. Also, the “Cell viability in %” value with mouse peritoneal cells is 104.2 ± 0.3 (n = 8) %.

For `Nc1nc(-c2ccccc2)cc(-c2ccc(OCc3ccc(Cl)cc3)cc2)n1` [Compound 1i, 4-(4-((4-chlorobenzyl)oxy)phenyl)-6-phenylpyrimidin-2-amine], in the data set on mouse peritoneal cells, the “Cell viability in %” value is given as 102.2 ± 4.1 (n = 4) %.

On to `CCCCc1c(-c2ccccc2)nc(N)nc1-c1ccc(OCc2ccc(Cl)cc2)cc1` [Compound 1j, 5-butyl-4-(4-((4-chlorobenzyl)oxy)phenyl)-6-phenylpyrimidin-2-amine], for which, in the data set with biosynthesis of PGE2, the activity at 50 µM worked out at 0.7 ± 0.5% and the IC50 is 77 nM. The “Cell viability in %” value in the data set on mouse peritoneal cells was 101.2 ± 0.8 (n = 8) %.

`CCCCc1c(-c2ccccc2)nc(N)nc1-c1ccc(OCc2ccccc2)cc1C` [Compound 1k, 4-(4-(benzyloxy)-2-methylphenyl)-5-butyl-6-phenylpyrimidin-2-amine]: the activity at 50 µM with biosynthesis of PGE2 worked out at 51.1 ± 0.8%. For the same molecule, the “Cell viability in %” value with mouse peritoneal cells is 103.2 ± 0.5 (n = 8) %.

Turning to `Nc1nc(-c2ccccc2)cc(-c2ccc(OCc3ccccc3)c(F)c2F)n1` [Compound 1l, 4-(4-(benzyloxy)-2,3-difluorophenyl)-6-phenylpyrimidin-2-amine], the activity at 50 µM with biosynthesis of PGE2 came out at 5.5 ± 0.3%. In addition, the “Cell viability in %” value with mouse peritoneal cells is listed as 102.6 ± 3.7 (n = 4) %.

As for `CCCCc1c(-c2ccccc2)nc(N)nc1-c1ccc(OCc2ccccc2)c(F)c1F` [Compound 1m, 4-(4-(benzyloxy)-2,3-difluorophenyl)-5-butyl-6-phenylpyrimidin-2-amine], the values for the activity at 50 µM (with biosynthesis of PGE2; in data set [1]) were 0.03 ± 0.2% and 84%, respectively. For the same molecule, in the data set with biosynthesis of PGE2 (compound 50 μmol·l^−1), the “Inhibition of PGE2 production (in words)” value is given as “completely inhibits”. For the same molecule, the IC50 with biosynthesis of PGE2 came to 6 nM. Besides, the “Cell viability in %” value in the data set on mouse peritoneal cells is listed as 103.7 ± 0.4 (n = 8) %.

Turning to `CCCCc1c(-c2ccccc2)nc(N)nc1-c1cc(C)c(OCc2ccccc2Cl)c(C)c1` [Compound 1n, 5-butyl-4-(4-((2-chlorobenzyl)oxy)-3,5-dimethylphenyl)-6-phenylpyrimidin-2-amine], in the data set with biosynthesis of PGE2, the activity at 50 µM was determined as 7.1 ± 1.9%. In the data set on mouse peritoneal cells, the “Cell viability in %” value was 103.6 ± 0.3 (n = 8) %.

With `CCCCc1c(-c2ccccc2)nc(N)nc1-c1cc(C)c(OCc2cccc(Cl)c2)c(C)c1` [Compound 1o, 5-butyl-4-(4-((3-chlorobenzyl)oxy)-3,5-dimethylphenyl)-6-phenylpyrimidin-2-amine], in the data set on biosynthesis of PGE2, the activity at 50 µM came out at 6.5 ± 0.4%. The “Cell viability in %” value in the data set on mouse peritoneal cells is given as 102.8 ± 0.4 (n = 8) %.

In the case of `CCCCc1c(-c2ccc(OCc3ccccc3)cc2)nc(N)nc1-c1cccc(OC)c1` [Compound 2a, 4-(4-(benzyloxy)phenyl)-5-butyl-6-(3-methoxyphenyl)pyrimidin-2-amine], the activity at 50 µM in the data set on biosynthesis of PGE2 was found to be 10 ± 2%. In the data set on mouse peritoneal cells, the “Cell viability in %” value was 43.1% and 43.1 ± 8.4 (n = 4) %.

For the molecule `CCCCc1c(-c2ccc(OC)cc2)nc(N)nc1-c1ccc(OCc2ccccc2)cc1` [Compound 2b, 4-(4-(benzyloxy)phenyl)-5-butyl-6-(4-methoxyphenyl)pyrimidin-2-amin], in the data set on biosynthesis of PGE2, the activity at 50 µM was 10.5 ± 0.1%. Moreover, the “Cell viability in %” value with mouse peritoneal cells is 100.3 ± 1.2 (n = 4) %.

As for `CCCCc1c(-c2ccc(OCc3ccccc3)cc2)nc(N)nc1-c1cccc(Cl)c1` [Compound 2c, 4-(4-(benzyloxy)phenyl)-5-butyl-6-(3-chlorophenyl)pyrimidin-2-amine], in the data set with biosynthesis of PGE2, the activity at 50 µM was determined as 12.6 ± 1.7%. Further, in the data set with mouse peritoneal cells, the “Cell viability in %” value is recorded as 101.3 ± 2.0 (n = 4) %.

Regarding `CCCCc1c(-c2ccc(Cl)cc2)nc(N)nc1-c1ccc(OCc2ccccc2)cc1` [Compound 2d, 4-(4-(benzyloxy)phenyl)-5-butyl-6-(4-chlorophenyl)pyrimidin-2-amine], the activity at 50 µM in the data set on biosynthesis of PGE2 is 4.1 ± 0.7%. The “Cell viability in %” value in the data set on mouse peritoneal cells is 96.7 ± 2.2 (n = 4) %.
